Measured values as given in PubChem BioAssay (NCI).
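Five concentrations, 48 hours, 96-well plates. The concentration for 50% growth inhibition is given as GI50. TGI denotes the concentration required for complete inhibition of growth.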

Experiments:
Assay in all cases: DTP human tumour cell line panel, 48 h
A549 NSCLC = test system: A549 NSCLC
BT-549 breast = test system: BT-549 breast
CCRF-CEM leukemia = test system: CCRF-CEM leukemia
HCT-116 colon = test system: HCT-116 colon
MCF7 breast = test system: MCF7 breast
RPMI-8226 leukemia = test system: RPMI-8226 leukemia
SF-539 CNS = test system: SF-539 CNS
SR leukemia = test system: SR leukemia
UO-31 renal = test system: UO-31 renal
HOP-92 NSCLC = test system: HOP-92 NSCLC

SMILES | GI50 (A549 NSCLC) | TGI (A549 NSCLC) | GI50 (BT-549 breast) | TGI (BT-549 breast) | GI50 (CCRF-CEM leukemia) | TGI (CCRF-CEM leukemia) | GI50 (HCT-116 colon) | TGI (HCT-116 colon) | GI50 (MCF7 breast) | TGI (MCF7 breast) | GI50 (RPMI-8226 leukemia) | TGI (RPMI-8226 leukemia) | GI50 (SF-539 CNS) | TGI (SF-539 CNS) | GI50 (SR leukemia) | TGI (SR leukemia) | GI50 (UO-31 renal) | TGI (UO-31 renal) | TGI (HOP-92 NSCLC) | GI50 (HOP-92 NSCLC)
Clc1cccc(Cl)c1C1CSc2ccccc2N=C1c1ccccc1 (configuration not stated) | 12.2 µM | 28.1 µM | 5.19 µM | 17.1 µM | 3.44 µM | 34.8 µM | 1.71 µM | 3.32 µM | 0.595 µM | 11.6 µM | 2.46 µM | 7.1 µM | 6.08 µM | 18.9 µM | 3.42 µM | > 100 µM | 1.42 µM | 4.57 µM |  | 
O=C1c2ccccc2C(=O)N1CCN(CCN1C(=O)c2ccccc2C1=O)Cn1cccn1 |  | > 100 µM |  |  |  | > 100 µM |  | 31.6 µM |  |  |  | 83.4 µM |  |  |  |  |  | > 100 µM | > 100 µM | 
C=C(C)[C@@H]1CC[C@]2(C(=O)O)CC[C@]3(C)[C@H](CC[C@@H]4[C@@]5(C)C[C@@H](CC#Cc6ccc(C(F)(F)F)cc6)[C@H](O)C(C)(C)[C@@H]5CC[C@]43C)[C@@H]12 |  |  | 10.9 µM | > 100 µM | 2.98 µM | > 100 µM | 2.34 µM | > 100 µM | 2.89 µM | > 100 µM | 4.01 µM | > 100 µM |  |  | 3.23 µM | > 100 µM | 6.52 µM | > 100 µM | 13.8 µM | 3.09 µM
CC(=O)c1ccc(OCC(O)CO)cc1 (configuration not stated) |  | > 100 µM |  |  |  | > 100 µM |  | 33.5 µM |  |  |  | > 100 µM |  | > 100 µM |  |  |  | > 100 µM | > 100 µM | 
Oc1ccc(O)c(-c2cn3ccsc3n2)c1 | 22.9 µM | 48.9 µM | 5.61 µM | 21 µM | 1.59 µM | 4.23 µM | 5.68 µM | 18.3 µM | 5.5 µM | 27.2 µM | 1.73 µM | 7.82 µM |  |  | 1.48 µM | 4.43 µM | 12.6 µM | 25.2 µM |  | 
CN(Cc1cc(Br)cc(Br)c1O)Cc1cc(Br)cc(Br)c1O | 2.19 µM | 15.4 µM |  |  | 1.31 µM | > 100 µM | 0.812 µM | 12.3 µM | 2.96 µM | 15 µM | 2.77 µM | 47.9 µM | 2.61 µM | 20.2 µM | 0.675 µM | 28.3 µM | 1.08 µM | 14.6 µM | 8.87 µM | 1.42 µM
O=CNc1ncn[nH]1 |  | > 100 µM |  | > 100 µM |  | > 100 µM |  | > 100 µM |  | > 100 µM |  | > 100 µM |  | > 100 µM |  | > 100 µM |  | > 100 µM |  | 
CC1CC(=O)Nc2ccccc2N1C(=O)CN1CCC(CCCCN(C)C)CC1 (configuration not stated) |  | > 100 µM |  |  |  | > 100 µM |  | > 100 µM |  |  |  | > 100 µM |  | > 100 µM |  | > 100 µM |  | > 100 µM |  | 
CC1SC2=NC3=C(c4ccccc4C3=O)C(c3ccc(Cl)cc3)N2C1=O (configuration not stated) |  | > 100 µM |  |  |  | > 100 µM |  |  |  |  |  | > 100 µM |  |  |  |  |  | > 100 µM | > 100 µM | 
